Test system: THP-1 cells
Test: Viability of THP-1 cells in co-culture with CD33-specific CAR-T cells (flow cytometry-based cell counting)
Design: species or system human
Settings: 5 μM AR-C
Procedure: FIG. 8. Effects of P2RY2 antagonist on T cells and cancer cells in T cell-cancer cell co-cultures. T cells transduced with CD33-specific CAR (CAR-T) were co-cultured with genetically edited THP-1 cells in the absence or presence of 5 μM AR-C 118925XX (AR-C) for 6-24 hours. Control cells: THP-1 cells transduced with non-targeting sgRNA and Cas9 (gNT); P2RY2 deficient cells: THP-1 cells transduced with P2RY2-targeting sgRNA and Cas9 (gP2RY2-3, gP2RY2-4); B7-H3 (CD276) deficient cells: THP-1 cells transduced with B7-H3-targeting sgRNA and Cas9 (gCD276-1); P2RY2 and B7-H3 double deficient cells: THP-1 cells transduced with P2RY2-targeting sgRNA, B7-H3-targeting sgRNA, and Cas9 (gCD276-1 gP2RY2-3 DKO, gCD276-1 gP2RY2-4 DKO); P2RY2 overexpression cells: THP-1 cells transduced with the open reading frame of P2RY2 (P2RY2-OE); B7-H3 overexpression cells: THP-1 cells transduced with the open reading frame of CD276 (CD276-OE). […]
FIG. 9. […] Control cells THP-1 cells transduced with non-targeting sgRNA and Cas9 (Ctrl.); P2RY2 overexpression cells: THP-1 cells transduced with the open reading frame of P2RY2 (P2RY2-OE). […]
The open reading frames of transcripts of P2RY2(ENST00000393597.7) or CD276(ENST00000318443.10), were ordered as a codon optimized gBlock Gene Fragment (Integrated DNA Technologies or Twist Bioscience) and cloned into a lentiviral vector containing a blasticidin selection cassette. […]
MART1-specific CD8+ T cells and MART1 epitope-expressing cancer cells were mixed at a ratio of 1:16 to 1:4. […] T cell activation was assessed by surface staining with anti-CD137-BV421 (4-1BB, Biolegend), anti-CD69-APC/Fire™ 750 (FN50, Biolegend), anti-CD25-AF700 (BC96, Biolegend) antibodies and intracellular staining with anti-IL-2-PE/Cy7 (MQ1-17H12, Biolegend), anti-IFN-7-BV421 (4S.B3, Biolegend), anti-TNF-α-BV785 (MAb11, Biolegend) antibodies, followed by flow cytometry analysis. […] The viability of cancer cells that grow in suspension including THP-1 cells was assessed by flow cytometry-based absolute cell counting using AccuCount beads (Spherotech). […]

Question: What does the source list for `Cc1ccc2c(c1)C=Cc1cc(C)ccc1C2c1cn(Cc2ccc(C(=O)Nc3nn[nH]n3)o2)c(=O)[nH]c1=S` [AR-C 118925XX]?
Answer: viability of P2RY2 proficient THP-1 cells (6-24 hours, co-culture with CD33-specific CAR-T cells (FIG. 8)): reduced; viability of tumor cells upon P2RY2 deletion (P2RY2 deficient THP-1 cells, CAR-T cell-THP-1 cell coculture (FIG. 8)): does not influence

From patent US20250281610A1, “P2RY2 ACTIVITY MODULATORS” (Deutsches Krebsforschungszentrum Stiftung des öffentlichen …, priority 2022, published 2025)
